Results on six molecules are retold here after paper PMC11330772, “Unveiling the kinetic versatility of aryl-alcohol oxidases with different electron acceptors” (Frontiers in Bioengineering and Biotechnology, 2024).

In data set [1] the target is T1, PeAAO (Pleurotus eryngii, UniProt O94219).
For data set [2], the target named is T2, BaAAO (Bjerkandera adusta, UniProt A0ABF7PQ87).
For data set [3], the target named is T1, PeAAO. In words: Steady-state bi-substrate kinetics of alcohol oxidation. It is filed as biochemical. As to the method:
(§1) Bi-substrate kinetics were analyzed by concurrently varying the concentration of the aforementioned alcohols and electron acceptors. Oxygen assays were carried out in a screw-cap cuvette where the alcohol was equilibrated with the desired concentration of O2 by bubbling with the appropriate O2/N2 gas mixture (4%, 10%, 21%, 44%, and 100% O2) for 10 min. Alcohol oxidation was initiated by the addition of the enzyme and followed at 285 nm for 4-methoxybenzaldehyde production and 295 nm in the case of 3-Cl-4-methoxybenzaldehyde (Δε285 = 16,950 M^−1cm^−1 and Δε295 = 15,000 M^−1cm^−1, respectively) ([Ferreira et al., 2005]). […]. BQ solutions were prepared immediately prior to use and protected from the light to avoid photodegradation.
(§2) The initial rates for bi-substrate kinetics were fitted to Eq. 1 or Eq. 2, which describe sequential and ping-pong kinetic mechanisms, respectively. […]

Data set [4] has as its target T2, BaAAO. Described as above. It is filed as biochemical. As to the method:
as §1, §2

The target in data set [5] is T1, PeAAO. In words: Stopped-flow reductive half-reaction (flavin reduction by alcohol). It is filed as biochemical. As to the method:
(§3) Studies on the reductive half-reaction were performed by mixing AAO (∼10 μM, final concentration) with increasing concentrations of alcohols under anaerobic conditions. Observed rate constants (k obs) were calculated using global analysis and numerical integration methods, simultaneously utilizing all spectral data in the 400–800 nm region along time evolution using the ProKineticist software from Applied Photophysics.

For data set [6], the target named is T2, BaAAO. The description is as above. The conditions noted are these: anaerobic, 50 mM sodium phosphate, pH 6.0, 25 °C. It is filed as biochemical. As to the method:
as §3

The target of data set [7] is T2, BaAAO. The experiment in a line: Redox state of the enzyme during turnover (stopped-flow). It is filed as biochemical. The note with it: in the presence of O2 (air), saturating alcohol, pH 6.0, 25 °C.
Data set [8] has as its target T2, BaAAO. In words: biochemical.
For data set [9], the target named is T1, PeAAO. Also noted: method as in Carro et al. (2018a). The note with it: pH 6.0, 12 °C, ref Carro et al. (2018a), cited from earlier work.
For data set [10], the target named is T2, BaAAO. Also noted: method as in Ferreira et al. (2023). The note with it: alcohol substrate 4-methoxybenzyl alcohol, 50 mM phosphate, pH 6.0, 25 °C, ref Ferreira et al. (2023); cited from earlier work.
Data set [11] has as its target T1, PeAAO. The experiment in a line: Stopped-flow oxidative half-reaction (flavin reoxidation by O2 or BQ). The note with it: PeAAO.
In data set [12] the target is T1, PeAAO. Also noted: method as in Ferreira et al. (2023). The note with it: alcohol substrate 4-methoxybenzyl alcohol, 50 mM phosphate, pH 6.0, 25 °C, ref Ferreira et al. (2023); cited from earlier work.
In data set [13] the target is T1, PeAAO. The conditions noted are these: pH 6.0, 12 °C, cited from earlier work.
Substrate in data set [14]: COc1ccc(CO)cc1Cl
The experiment in a line: Steady-state bi-substrate kinetics of alcohol oxidation. It is filed as biochemical, Pleurotus eryngii. The conditions noted are these: other: PeAAO, 50 mM phosphate, pH 6.0, 25 °C. As for the experimental part: as §1, §2

Substrate in data set [15]: O=C1C=CC(=O)C=C1
The description is as above. It counts as biochemical, Pleurotus eryngii. The conditions noted are these: other: PeAAO, alcohol substrate 3-Cl-4-methoxybenzyl alcohol, 50 mM phosphate, pH 6.0, 25 °C. As to the method:
as §1, §2

Substrate in data set [16]: COc1ccc(CO)cc1Cl
The description is as above. It is filed as biochemical, Bjerkandera adusta. The conditions noted are these: other: BaAAO, 50 mM phosphate, pH 6.0, 25 °C. As to the method: as §1, §2

Substrate in data set [17]: O=C1C=CC(=O)C=C1
The data set is described as above. It counts as biochemical, Bjerkandera adusta. The note with it: other: BaAAO, alcohol substrate 3-Cl-4-methoxybenzyl alcohol, 50 mM phosphate, pH 6.0, 25 °C. As for the experimental part: as §1, §2

Setting [18] is: 50 mM sodium phosphate, pH 6.0, 12 °C.
The mark [19] stands for this setting: anaerobic, 50 mM sodium phosphate, pH 6.0, 25 °C.
The mark [20] stands for this setting: alcohol substrate 3-Cl-4-methoxybenzyl alcohol, 50 mM phosphate, pH 6.0, 25 °C.
[21] abbreviates: BaAAO, alcohol substrate 3-Cl-4-methoxybenzyl alcohol, 50 mM phosphate, pH 6.0, 25 °C.

Where two headings read alike, the source gives them in different places.

In the case of `COc1ccc(C(=O)O)cc1Cl` [3-Cl-4-methoxybenzoic acid], the k on worked out at 37000 ± 1000 M⁻¹ s⁻¹ in data set [1] (setting [18]) and 47000 ± 2000 M⁻¹ s⁻¹ in [2] (setting [18]). For the same molecule, the k off result is “no dissociation” in [1] (50 mM sodium phosphate, pH 6.0, 12 °C, nd = not detected) and 13 ± 1 s⁻¹ in data set [2] (setting [18]). Further, the Kd in data set [2] (read-out: K d(acid), K d = k off/k on, pH 6.0, 12 °C) amounted to 276 ± 38 µM.
Turning to `COc1ccc(CO)cc1Cl` [3-Cl-4-methoxybenzyl, 3-chloro-4-methoxybenzyl alcohol], the “k cat lower than for the other substrate (4-methoxybenzyl alcohol)” value in [3] worked out at 4 fold. Also, the “turnover of BaAAO higher than PeAAO” value in [4] (O2 as electron acceptor) is listed as 2 fold. Further, the results for the k red in data set [5] (setting [19]) and in data set [6] were 96 ± 3 s⁻¹ and 121 ± 11 s⁻¹, respectively. For the same molecule, the “k red/K d(alcohol)” value in data set [5] (setting [19]) was 4,486 ± 725 s^−1mM^-1; in [6], 404000 ± 127000 M⁻¹ s⁻¹. Besides, the Kd is 21 ± 3 µM in [5] (anaerobic, 50 mM sodium phosphate, pH 6.0, 25 °C, read-out: K d(alcohol)) and 300 ± 91 µM in [6] (read-out: K d(alcohol)). Also, the “k red higher than k cat” value in data set [5] (turnover with BQ) was determined as 4 fold; in data set [5] (turnover with O2), 2 fold. For the same molecule, the “reduced form of the enzyme during turnover” value in [7] is at most 60%.
Consider `COc1ccc(C(=O)O)cc1` [4-Methoxybenzoic acid, 4-methoxybenzoic acid], for which the “k on slower than that of 3-Cl-4-methoxybenzoic acid” value is reported as “approximately 2 fold” in [1] and around 5 fold in data set [2]. Besides, the Kd in data set [8] is 1810 ± 197 µM; in data set [9] (K d = k off/k on, read-out: K d(acid)) it was 149 ± 10 µM. Also, the k off in data set [8] (pH 6) was 18 ± 2 s⁻¹; in [9] (50 mM sodium phosphate) it was 3 ± 1 s⁻¹. Moreover, the k on in [8] (pH 6) was 10000 ± 1000 M⁻¹ s⁻¹; in data set [9] (50 mM sodium phosphate) it was 18000 ± 1000 M⁻¹ s⁻¹.
With `O=O` [O2], the “K m(acceptor)” value in data set [10] was 134 ± 5 µM; in data set [12], 176 ± 1 µM; in [3] (setting [20]) it was 67 ± 2 µM; in data set [4] (setting [21]) it was 225 ± 8 µM. The “k cat/K m(acceptor)” value in data set [10] was 549000 ± 23000 M⁻¹ s⁻¹; in data set [12], 1,139 ± 35 s^−1mM^−1; in data set [3] (setting [20]), 647000 ± 22000 M⁻¹ s⁻¹; in data set [4] (setting [21]), 312000 ± 12000 M⁻¹ s⁻¹. For the same molecule, the “reverse rate constant (k rev), y-axis intercept of reoxidation” value in [11] stood at 17 s⁻¹. Also, the “k ox(O2)” value was 790 ± 20 ^b s^−1mM^−1 in data set [13] (PeAAO reduced by 3-Cl-4-methoxybenzyl alcohol, ref Ferreira et al. (2015)) and 770 ± 40 ^a s^−1mM^−1 in data set [13] (PeAAO reduced by 4-methoxybenzyl alcohol, ref Carro et al. (2018a)).

B1: PeAAO (Pleurotus eryngii) (protein)
chain: ADFDYVVVGAGNAGNVVAARLTEDPDVSVLVLEAGVSDENVLGAEAPLLAPGLVPNSIFDWNYTTTAQAGYNGRSIAYPRGRMLGGSSSVHYMVMMRGSTEDFDRYAAVTGDEGWNWDNIQQFVRKNEMVVPPADNHNTSGEFIPAVHGTNGSVSISLPGFPTPLDDRVLATTQEQSEEFFFNPDMGTGHPLGISWSIASVGNGQRSSSSTAYLRPAQSRPNLSVLINAQVTKLVNSGTTNGLPAFRCVEYAEQEGAPTTTVCAKKEVVLSAGSVGTPILLQLSGIGDENDLSSVGIDTIVNNPSVGRNLSDHLLLPAAFFVNSNQTFDNIFRDSSEFNVDLDQWTNTRTGPLTALIANHLAWLRLPSNSSIFQTFPDPAAGPNSAHWETIFSNQWFHPAIPRPDTGSFMSVTNALISPVARGDIKLATSNPFDKPLINPQYLSTEFDIFTMIQAVKSNLRFLSGQAWADFVIRPFDPRLRDPTDDAAIESYIRDNANTIFHPVGTASMSPRGASWGVVDPDLKVKGVDGLRIVDGSILPFAPNAHTQGPIYLVGKQGADLIKADQ
For orientation: Km means the concentration of substrate that gives half-maximal velocity. As a reminder, the kcat is the maximal rate divided by the concentration of active sites. In general, kcat/Km refers to the second-order rate constant that governs catalysis at low substrate concentration. B1: in data set [14] (BQ as e− acceptor (anaerobic)), the Km turned out to be 4 ± 1 µM, the catalytic constant (kcat) is 21 ± 1 s⁻¹ and the kcat/Km is recorded as 5,874 ± 481 s^−1mM^−1. Further, in [14] (O2 as e− acceptor), the Michaelis constant (Km) came to 11 ± 1 µM, the catalytic constant (kcat) was 43 ± 1 s⁻¹ and the specificity constant (kcat/Km) is given as 3,806 ± 122 s^−1mM^−1. Besides, the Michaelis-Menten constant (Km) in data set [15] turned out to be 29 ± 2 µM.

B2: BaAAO (Bjerkandera adusta) (protein)
chain: MVTFFTDASQLPATVYDFIVVGAGNAGNVVAARLTEDWKTTVLLIEAGISHEGIDSVAVPGLVLDNLPFSPVMWNYTTVPQAALDNRPIPYAKGRVVGGSSSVNFMEYTRSSNTEYDRWANLTGDAGWSWKNMEQYYLKNSRLVPPQDGHNTTGDVDPSVHGYGPVPLSLVGTPNPLDARMRAATQAPGAEFPFQLDMNGGDMIGFGIVQSTILNGERMHSGKAFLEPAMSRPNLHVLIENTVTRLIQTKTTNGLPSFMKVEFARDALSARSVVTATKEVVLSAGSIGTPQILMLSGIGDREELTAIGVNVTVDNPAVGKHLKDHPIMANYFQVNSNETYDDIFRDRDVSNTFLAQWKQNRTGPMVASPSTGLGFFRLPDNDTIFERFADPSPGEGAGHIELILSNQWTPEVQIPPATGSFLTVHAVVVSPASEGTVRLNSTNPFEFPLLDPQLLSSEFDQHTIIHAARLARQFVSSSPWADFVESRTGIIGDTDDDEADLLAAARQATVTIWHPMCTARMAPKGSTDGAIDPDLLVKGVSGLRVIDGAALPAIPATHPMAAIYLLAERGSDLIKQKWKL
As for B2, in [16] (BQ as e− acceptor (anaerobic)), the Michaelis-Menten constant (Km) came out at 26 ± 4 µM, the kcat is 23 ± 1 s⁻¹ and the kcat/Km came out at 910000 ± 146000 M⁻¹ s⁻¹. In addition, in [16] (O2 as e− acceptor), the Km is 94 ± 4 µM, the catalytic constant (kcat) was determined as 70 ± 1 s⁻¹ and the specificity constant (kcat/Km) was 747000 ± 32000 M⁻¹ s⁻¹. Further, in [17], the Michaelis constant (Km) is reported as 66 ± 12 µM.
